Earlier results in patent publication US10927398B2, “Compositions for CYP450 phenotyping using saliva samples” (Concordia University, Inc., priority 2015, dated 2021).
Where two headings read alike, the source gives them in different places.

How the values were obtained:
[1] = cited from earlier work
plasma protein = settings: cited from earlier work
[2] = cited from earlier work; remark: listed apart in the source
[3] = Table of Exemplary Drugs, CYP2C19
[4] = Table of Exemplary Drugs, CYP3A4
[5] = Table of Exemplary Drugs, CYP1A2
[6] = Table of Exemplary Drugs, CYP2D6
[7] = Table of Exemplary Drugs, CYP2C9

## COc1ccc2nc([S@@+]([O-])Cc3ncc(C)c(OC)c3C)[nH]c2c1 [Esomeprazole]
[1]; [3]
  ORAL BIOAVAILABILITY: 90%
Plasma protein; [3]
  PLASMA PROTEIN BINDING: 97%
[2]; [3]
  HALF-LIFE: 1.5 h

## Clc1ccc2c(c1)C(c1ccccc1)=NCc1nncn1-2 [Estazolam (ProSom), Estazolam]
[1]; [4]
  ORAL BIOAVAILABILITY: 93%
Plasma protein; [4]
  PLASMA PROTEIN BINDING: 93%
[2]; [4]
  HALF-LIFE: 10 to 24 h

## C[C@]12CC[C@@H]3c4ccc(O)cc4CC[C@H]3[C@@H]1CC[C@@H]2O [Estradiol]
[1]; [5]
  ORAL BIOAVAILABILITY: 43%
Plasma protein; [5]
  PLASMA PROTEIN BINDING: >95%
[2]; [5]
  HALF-LIFE: 36 h

## C#C[C@]1(O)CC[C@H]2[C@@H]3CCc4cc(O)ccc4[C@H]3CC[C@@]21C [Ethinyl Estradiol]
[1]; [4]
  ORAL BIOAVAILABILITY: 38-48%
Plasma protein; [4]
  PLASMA PROTEIN BINDING: 97-98% ^
[2]; [4]
  HALF-LIFE: 7 to 36 h

## C=C1C[C@@H]2[C@H](CC[C@]3(C)C(=O)CC[C@@H]23)[C@@]2(C)C=CC(=O)C=C12 [Exemestane (Aromasin), Exemestane]
[1]; [4]
  ORAL BIOAVAILABILITY: 42%
Plasma protein; [4]
  PLASMA PROTEIN BINDING: 90%
[2]; [4]
  HALF-LIFE: 24 h

## O=C(NCC1CCCCN1)c1cc(OCC(F)(F)F)ccc1OCC(F)(F)F (stereo not shown) [Flecainide]
[1]; [6]
  ORAL BIOAVAILABILITY: 70-95%
Plasma protein; [6]
  PLASMA PROTEIN BINDING: 40%
[2]; [6]
  HALF-LIFE: 20 h

## CNCCC(Oc1ccc(C(F)(F)F)cc1)c1ccccc1 (stereo not shown) [Fluoxetine]
[1]; [7]
  ORAL BIOAVAILABILITY: 60-80%
[1]; [6]
  ORAL BIOAVAILABILITY: 60-80%
Plasma protein; [7]
  PLASMA PROTEIN BINDING: 94.5%^
Plasma protein; [6]
  PLASMA PROTEIN BINDING: 94.5%^
[2]; [7]
  HALF-LIFE: 96 to 140 h
[2]; [6]
  HALF-LIFE: 96 to 140 h

## CCN(CC)CCN1C(=O)CN=C(c2ccccc2F)c2cc(Cl)ccc21 [Flurazepam (Dalmane), Flurazepam]
[1]; [4]
  ORAL BIOAVAILABILITY: 83%
Plasma protein; [4]
  PLASMA PROTEIN BINDING: 97.2%^
[2]; [4]
  HALF-LIFE: 2.3 h

## CC(C)n1c(/C=C/C(O)CC(O)CC(=O)O)c(-c2ccc(F)cc2)c2ccccc21 (stereo not shown) [Fluvastatin]
[1]; [7]
  ORAL BIOAVAILABILITY: 24%
Plasma protein; [7]
  PLASMA PROTEIN BINDING: 98%
[2]; [7]
  HALF-LIFE: 2.5 h

## Cc1ccc(S(=O)(=O)NC(=O)NN2CC3CCCC3C2)cc1 (stereo not shown) [Gliclazide]
[1]; [3]
  ORAL BIOAVAILABILITY: 80%
Plasma protein; [3]
  PLASMA PROTEIN BINDING: 85-99% ^
[2]; [3]
  HALF-LIFE: 8 to 12 h

## CCC1=C(C)CN(C(=O)NCCc2ccc(S(=O)(=O)NC(=O)N[C@H]3CC[C@H](C)CC3)cc2)C1=O [Glimepiride]
[1]; [7]
  ORAL BIOAVAILABILITY: 100%
Plasma protein; [7]
  PLASMA PROTEIN BINDING: >99%
[2]; [7]
  HALF-LIFE: 5 to 9.2 h

## O=C(CCCN1CCC(O)(c2ccc(Cl)cc2)CC1)c1ccc(F)cc1 [Haloperidol]
[1]; [5]
  ORAL BIOAVAILABILITY: 60%
[1]; [6]
  ORAL BIOAVAILABILITY: 60%
Plasma protein; [5]
  PLASMA PROTEIN BINDING: 88.4-92.5% ^
Plasma protein; [6]
  PLASMA PROTEIN BINDING: 88.4-92.5% ^
[2]; [5]
  HALF-LIFE: 14 to 37 h
[2]; [6]
  HALF-LIFE: 14 to 37 h

## COc1ccc2c3c1O[C@H]1C(=O)CC[C@H]4[C@@H](C2)N(C)CC[C@]314 [Hydrocodone]
[1]; in vivo, po
  ORAL BIOAVAILABILITY: 25%
Plasma protein; [6]
  PLASMA PROTEIN BINDING: 19-45% ^
[2]; in vivo
  HALF-LIFE: 7 to 9 h

## COc1cc(C(C)=O)ccc1OCCCN1CCC(c2noc3cc(F)ccc23)CC1 [Iloperidone]
[1]; [6]
  ORAL BIOAVAILABILITY: 96%
Plasma protein; [6]
  PLASMA PROTEIN BINDING: 95%
[2]; [6]
  HALF-LIFE: 18 to 33 h

## COc1ccc2c(c1)c(CC(=O)O)c(C)n2C(=O)c1ccc(Cl)cc1 [Indomethacin]
[1]; [3]
  ORAL BIOAVAILABILITY: 100%
Plasma protein; [3]
  PLASMA PROTEIN BINDING: 99%
[2]; [3]
  HALF-LIFE: 4.5 h

## CCCCC1=NC2(CCCC2)C(=O)N1Cc1ccc(-c2ccccc2-c2nnn[nH]2)cc1 [Irbesartan]
[1]; [7]
  ORAL BIOAVAILABILITY: 60-80%
Plasma protein; [7]
  PLASMA PROTEIN BINDING: 90%
[2]; [7]
  HALF-LIFE: 11 to 15 h

## COC(=O)C1=C(C)NC(C)=C(C(=O)OC(C)C)C1c1cccc2nonc12 (stereo not shown) [Isradipine (DynaCirc), Isradipine]
[1]; cell marked CR, Table of Exemplary Drugs, CYP3A4
  ORAL BIOAVAILABILITY: CR: 15-24%
[1]; cell marked IR, Table of Exemplary Drugs, CYP3A4
  ORAL BIOAVAILABILITY: IR 90-95%;
Plasma protein; [4]
  PLASMA PROTEIN BINDING: 95%
[2]; [4]
  HALF-LIFE: 8 h

## CNC1(c2ccccc2Cl)CCCCC1=O (stereo not shown) [Ketamine]
[1]; in vivo
  ORAL BIOAVAILABILITY: IM: 90-93%, PO: 16%
Plasma protein; plasma
  PLASMA PROTEIN BINDING: 47%
[2]; in vivo
  HALF-LIFE: 2 to 3 h

## CC(=O)N1CCN(c2ccc(OCC3COC(Cn4ccnc4)(c4ccc(Cl)cc4Cl)O3)cc2)CC1 (stereo not shown) [Ketoconazole (Nizoral), Ketoconazole]
[1]; [4]
  ORAL BIOAVAILABILITY: 75%
Plasma protein; [4]
  PLASMA PROTEIN BINDING: 99%
[2]; [4]
  HALF-LIFE: 2 to 8 h

## CN1C(C(=O)Nc2ccccn2)=C(O)c2sc(Cl)cc2S1(=O)=O [Lornoxicam]
[1]; cell marked IM, Table of Exemplary Drugs, CYP2C9
  ORAL BIOAVAILABILITY: IM: 87%
Plasma protein; [7]
  PLASMA PROTEIN BINDING: 99.7%^
[2]; [7]
  HALF-LIFE: 4 h

## OC(c1cc(C(F)(F)F)nc2c(C(F)(F)F)cccc12)C1CCCCN1 (stereo not shown) [Mefloquine (Lariam), Mefloquine]
[1]; [4]
  ORAL BIOAVAILABILITY: 85%
Plasma protein; [4]
  PLASMA PROTEIN BINDING: 98%
[2]; [4]
  HALF-LIFE: 3 weeks
